Source: ChEMBL document CHEMBL1287741, “Synthesis, antiproliferative activity in cancer cells and theoretical studies of novel 6α,7β-dihydroxyvouacapan-17β-oic acid Mannich base derivatives” (2010)
In brackets after ≈: the same amount, converted by molar mass.

Tests used:
Type in all cases: functional
OVCAR-3 = test: Growth inhibition of human OVCAR-3 cells after 48 hrs by sulforhodamine B assay; details: OVCAR-3, 48 h
NCI/ADR-RES = test: Growth inhibition of human NCI-ADR-RES cells after 48 hrs by sulforhodamine B assay
MCF7 = test: Growth inhibition of human MCF7 cells after 48 hrs by sulforhodamine B assay; details: MCF7, 48 h
786-0 = test: Growth inhibition of human 786-0 cells after 48 hrs by sulforhodamine B assay; details: 786-0, 48 h
NCI-H460 = test: Growth inhibition of human NCI-H460 cells after 48 hrs by sulforhodamine B assay; details: NCI-H460, 48 h
UACC-62 = test: Growth inhibition of human UACC62 cells after 48 hrs by sulforhodamine B assay; details: UACC-62, 48 h
PC-3 = test: Growth inhibition of human PC3 cells after 48 hrs by sulforhodamine B assay; details: PC-3, 48 h
K562 = test: Growth inhibition of human K562 cells after 48 hrs by sulforhodamine B assay; details: K562, 48 h
HT-29 = test: Growth inhibition of human HT-29 cells after 48 hrs by sulforhodamine B assay; details: HT-29, 48 h

Row | SMILES | GI50 (OVCAR-3) | GI50 (MCF7) | GI50 (786-0) | GI50 (NCI-H460) | GI50 (PC-3) | GI50 (K562) | GI50 (HT-29) | TGI (OVCAR-3) | GI50 (NCI/ADR-RES) | TGI (NCI/ADR-RES) | TGI (MCF7) | TGI (786-0) | TGI (NCI-H460) | GI50 (UACC-62) | TGI (UACC-62) | TGI (PC-3) | TGI (K562) | TGI (HT-29)
1 | CCN(CC)Cc1cc2c(o1)C[C@H]1[C@H]3[C@@H](OC(=O)[C@H]23)[C@H](O)[C@H]2C(C)(C)CCC[C@]12C | 2.5 mg/L (≈ 6.02 µM) | 0.27 mg/L (≈ 0.65 µM) | 2.23 mg/L (≈ 5.37 µM) | 1.35 mg/L (≈ 3.25 µM) | 0.28 mg/L (≈ 0.674 µM) | < 0.25 mg/L | 0.32 mg/L (≈ 0.77 µM) | 5.62 mg/L (≈ 13.5 µM) | 3.12 mg/L (≈ 7.51 µM) | 8.15 mg/L (≈ 19.6 µM) | 1.44 mg/L (≈ 3.47 µM) | 2.49 mg/L (≈ 5.99 µM) | 3.23 mg/L (≈ 7.77 µM) | 0.57 mg/L (≈ 1.37 µM) | 2.55 mg/L (≈ 6.14 µM) | 0.58 mg/L (≈ 1.4 µM) | 3.01 mg/L (≈ 7.24 µM) | 1.14 mg/L (≈ 2.74 µM)
2 | CC(C)CN(Cc1cc2c(o1)C[C@H]1[C@H]3[C@@H](OC(=O)[C@H]23)[C@H](O)[C@H]2C(C)(C)CCC[C@]12C)CC(C)C | 0.28 mg/L (≈ 0.594 µM) | 0.69 mg/L (≈ 1.46 µM) | 2.5 mg/L (≈ 5.3 µM) | 0.29 mg/L (≈ 0.615 µM) | 0.98 mg/L (≈ 2.08 µM) | 5.06 mg/L (≈ 10.7 µM) | 0.67 mg/L (≈ 1.42 µM) | 1.86 mg/L (≈ 3.94 µM) | 0.39 mg/L (≈ 0.827 µM) | 5.39 mg/L (≈ 11.4 µM) | 7.4 mg/L (≈ 15.7 µM) | 16.6 mg/L (≈ 35.3 µM) | 3.2 mg/L (≈ 6.78 µM) | 0.86 mg/L (≈ 1.82 µM) | 5.27 mg/L (≈ 11.2 µM) | 4.06 mg/L (≈ 8.61 µM) | 86.1 mg/L (≈ 182 µM) | 6.91 mg/L (≈ 14.6 µM)
3 | CC1(C)CCC[C@]2(C)[C@H]3Cc4oc(CN5CCCCC5)cc4[C@H]4C(=O)O[C@@H]([C@H](O)[C@@H]12)[C@@H]43 | 2.37 mg/L (≈ 5.54 µM) | 0.88 mg/L (≈ 2.06 µM) | 2.31 mg/L (≈ 5.4 µM) | 2.5 mg/L (≈ 5.85 µM) | 0.27 mg/L (≈ 0.631 µM) | 0.32 mg/L (≈ 0.748 µM) | 1.76 mg/L (≈ 4.12 µM) | 4.36 mg/L (≈ 10.2 µM) | 2.65 mg/L (≈ 6.2 µM) | 7.1 mg/L (≈ 16.6 µM) | 3.82 mg/L (≈ 8.93 µM) | 4.11 mg/L (≈ 9.61 µM) | 4.64 mg/L (≈ 10.9 µM) | 2.44 mg/L (≈ 5.71 µM) | 3.96 mg/L (≈ 9.26 µM) | 0.78 mg/L (≈ 1.82 µM) | 4.55 mg/L (≈ 10.6 µM) | 2.23 mg/L (≈ 5.22 µM)
4 | COc1cccc2c1C(=O)c1c(O)c3c(c(O)c1C2=O)C[C@@](O)(C(=O)CO)C[C@@H]3O[C@H]1C[C@H](N)[C@H](O)[C@H](C)O1 [DOXORUBICIN] | 0.08 mg/L (≈ 0.147 µM) | 0.03 mg/L (≈ 0.0552 µM) | 0.04 mg/L (≈ 0.0736 µM) | < 0.03 mg/L | 0.28 mg/L (≈ 0.515 µM) | 0.4 mg/L (≈ 0.736 µM) | 0.07 mg/L (≈ 0.129 µM) | 2.95 mg/L (≈ 5.43 µM) | 0.33 mg/L (≈ 0.607 µM) | 6.6 mg/L (≈ 12.1 µM) | 3.3 mg/L (≈ 6.07 µM) | 2.67 mg/L (≈ 4.91 µM) | 0.9 mg/L (≈ 1.66 µM) | 0.09 mg/L (≈ 0.166 µM) | 0.33 mg/L (≈ 0.607 µM) | 5.85 mg/L (≈ 10.8 µM) | 20.5 mg/L (≈ 37.7 µM) | 3.9 mg/L (≈ 7.18 µM)

More lines, main results first:

Row | GI50 (OVCAR-3) | GI50 (MCF7) | GI50 (786-0) | GI50 (NCI-H460) | GI50 (PC-3) | GI50 (K562) | GI50 (HT-29) | SMILES | TGI (OVCAR-3) | GI50 (NCI/ADR-RES) | TGI (NCI/ADR-RES) | TGI (MCF7) | TGI (786-0) | TGI (NCI-H460) | GI50 (UACC-62) | TGI (UACC-62) | TGI (PC-3) | TGI (K562) | TGI (HT-29)
5 | 2.36 mg/L (≈ 5.32 µM) | 2.5 mg/L (≈ 5.64 µM) | 2.5 mg/L (≈ 5.64 µM) | 2.96 mg/L (≈ 6.67 µM) | 2.4 mg/L (≈ 5.41 µM) | 2.77 mg/L (≈ 6.24 µM) | 2.33 mg/L (≈ 5.25 µM) | CCCN(CCC)Cc1cc2c(o1)C[C@H]1[C@H]3[C@@H](OC(=O)[C@H]23)[C@H](O)[C@H]2C(C)(C)CCC[C@]12C | 3.9 mg/L (≈ 8.79 µM) | 2.64 mg/L (≈ 5.95 µM) | 5.53 mg/L (≈ 12.5 µM) | 5.31 mg/L (≈ 12 µM) | 3.72 mg/L (≈ 8.39 µM) | 6.01 mg/L (≈ 13.5 µM) | 2.76 mg/L (≈ 6.22 µM) | 4.96 mg/L (≈ 11.2 µM) | 3.83 mg/L (≈ 8.63 µM) | 8.87 mg/L (≈ 20 µM) | 3.35 mg/L (≈ 7.55 µM)
6 | 2.5 mg/L (≈ 6.05 µM) | 1.81 mg/L (≈ 4.38 µM) | 0.76 mg/L (≈ 1.84 µM) | 2.5 mg/L (≈ 6.05 µM) | 0.34 mg/L (≈ 0.822 µM) | 1.58 mg/L (≈ 3.82 µM) | 0.3 mg/L (≈ 0.725 µM) | CC1(C)CCC[C@]2(C)[C@H]3Cc4oc(CN5CCCC5)cc4[C@H]4C(=O)O[C@@H]([C@H](O)[C@@H]12)[C@@H]43 | 5.28 mg/L (≈ 12.8 µM) | 2.5 mg/L (≈ 6.05 µM) | 6.18 mg/L (≈ 14.9 µM) | 3.86 mg/L (≈ 9.33 µM) | 3.98 mg/L (≈ 9.62 µM) | 4.94 mg/L (≈ 11.9 µM) | 0.78 mg/L (≈ 1.89 µM) | 3.05 mg/L (≈ 7.38 µM) | 1.69 mg/L (≈ 4.09 µM) | 23.2 mg/L (≈ 56.1 µM) | 1.61 mg/L (≈ 3.89 µM)
7 | 2.6 mg/L (≈ 6.05 µM) | 2.45 mg/L (≈ 5.7 µM) | 2.37 mg/L (≈ 5.52 µM) | 2.69 mg/L (≈ 6.26 µM) | 0.27 mg/L (≈ 0.629 µM) | 2.39 mg/L (≈ 5.56 µM) | 1.68 mg/L (≈ 3.91 µM) | CC1(C)CCC[C@]2(C)[C@H]3Cc4oc(CN5CCOCC5)cc4[C@H]4C(=O)O[C@@H]([C@H](O)[C@@H]12)[C@@H]43 | 8.05 mg/L (≈ 18.7 µM) | 2.73 mg/L (≈ 6.36 µM) | 6.34 mg/L (≈ 14.8 µM) | 4.77 mg/L (≈ 11.1 µM) | 4.04 mg/L (≈ 9.41 µM) | 4.05 mg/L (≈ 9.43 µM) | 2.5 mg/L (≈ 5.82 µM) | 4.36 mg/L (≈ 10.1 µM) | 1.27 mg/L (≈ 2.96 µM) | 8.24 mg/L (≈ 19.2 µM) | 3.68 mg/L (≈ 8.57 µM)
8 | 0.52 mg/L (≈ 1.57 µM) | 27.7 mg/L (≈ 83.7 µM) | 8.87 mg/L (≈ 26.8 µM) | 2.53 mg/L (≈ 7.66 µM) | 30.8 mg/L (≈ 93.3 µM) | 2.08 mg/L (≈ 6.29 µM) | 52.5 mg/L (≈ 159 µM) | CC1(C)CCC[C@@]2(C)C1[C@@H](O)[C@@H]1OC(=O)[C@@H]3c4ccoc4C[C@H]2[C@@H]13 (some centres undefined) | 8.82 mg/L (≈ 26.7 µM) | 0.35 mg/L (≈ 1.06 µM) | > 250 mg/L | 214 mg/L (≈ 647 µM) | 37.3 mg/L (≈ 113 µM) | 12.4 mg/L (≈ 37.7 µM) | 5.19 mg/L (≈ 15.7 µM) | 30 mg/L (≈ 90.8 µM) | 91.9 mg/L (≈ 278 µM) | > 250 mg/L | > 250 mg/L
